Source: BindingDB's records for doi:10.1021/jm9703911 (Allergan, 1997)

Tests used:
[1] = molecular target: T1, Retinoic acid receptor beta (Homo sapiens, UniProt P10826); assay: Inhibition of [3H]-ATRA binding to baculovirus expressed RAR beta receptor
T1 sequence (P10826 whole entry): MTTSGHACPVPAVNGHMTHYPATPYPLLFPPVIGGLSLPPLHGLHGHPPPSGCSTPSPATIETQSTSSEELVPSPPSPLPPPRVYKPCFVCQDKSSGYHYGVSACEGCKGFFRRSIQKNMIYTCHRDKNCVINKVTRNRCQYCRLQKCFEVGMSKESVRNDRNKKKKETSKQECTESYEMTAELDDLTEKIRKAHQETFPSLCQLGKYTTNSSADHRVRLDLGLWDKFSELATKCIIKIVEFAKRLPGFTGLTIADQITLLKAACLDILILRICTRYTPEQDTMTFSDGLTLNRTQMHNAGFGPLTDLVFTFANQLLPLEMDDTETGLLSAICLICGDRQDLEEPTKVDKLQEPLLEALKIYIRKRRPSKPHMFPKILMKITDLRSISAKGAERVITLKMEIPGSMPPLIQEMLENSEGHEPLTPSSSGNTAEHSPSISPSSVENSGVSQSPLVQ

[2] = molecular target: T2, Retinoic acid receptor gamma (Homo sapiens, UniProt P13631); assay: Inhibition of [3H]ATRA binding to baculovirus expressed RAR gamma receptor
T2 sequence (P13631 whole entry): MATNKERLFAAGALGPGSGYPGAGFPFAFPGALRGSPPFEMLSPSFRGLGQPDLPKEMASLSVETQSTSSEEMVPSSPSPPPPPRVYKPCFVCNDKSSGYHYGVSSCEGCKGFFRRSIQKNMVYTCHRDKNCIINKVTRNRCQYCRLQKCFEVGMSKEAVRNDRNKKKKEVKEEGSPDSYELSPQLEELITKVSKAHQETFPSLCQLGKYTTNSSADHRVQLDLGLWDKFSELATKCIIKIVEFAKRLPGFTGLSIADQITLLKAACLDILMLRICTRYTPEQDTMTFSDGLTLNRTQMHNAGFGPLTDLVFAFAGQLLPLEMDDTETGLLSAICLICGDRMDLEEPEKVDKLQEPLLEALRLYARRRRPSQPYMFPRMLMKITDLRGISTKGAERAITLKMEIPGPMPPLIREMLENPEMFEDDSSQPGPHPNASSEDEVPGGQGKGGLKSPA

[3] = molecular target: T3, Retinoic acid receptor alpha (Homo sapiens, UniProt P10276); assay: Inhibition of [3H]ATRA binding to baculovirus expressed RAR alpha receptor
T3 sequence (P10276 whole entry): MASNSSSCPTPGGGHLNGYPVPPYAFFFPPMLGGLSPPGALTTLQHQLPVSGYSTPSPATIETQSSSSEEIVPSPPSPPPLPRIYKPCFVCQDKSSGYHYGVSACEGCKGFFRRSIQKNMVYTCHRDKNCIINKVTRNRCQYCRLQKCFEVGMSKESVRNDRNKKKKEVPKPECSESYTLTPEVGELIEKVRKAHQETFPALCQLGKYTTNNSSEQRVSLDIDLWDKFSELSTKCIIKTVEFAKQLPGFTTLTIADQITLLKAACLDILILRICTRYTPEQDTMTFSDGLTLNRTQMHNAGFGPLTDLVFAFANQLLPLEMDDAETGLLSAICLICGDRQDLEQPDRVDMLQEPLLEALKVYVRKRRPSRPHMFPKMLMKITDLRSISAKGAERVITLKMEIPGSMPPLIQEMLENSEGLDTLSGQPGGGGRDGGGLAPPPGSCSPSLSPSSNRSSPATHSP

Cc1ccc(C2=CCC(C)(C)c3ccc(C(=O)Nc4ccc(C(=O)O)c(F)c4)cc32)cc1
Kd [1]: 622 nM | Kd [2]: 0.863 µM | Kd [3]: 5.7 nM

Cc1ccc(C2=CCC(C)(C)c3ccc(C(=O)Nc4ccc(C(=O)O)cc4)cc32)cc1
Kd [1]: 1020 nM | Kd [2]: 3.12 µM | Kd [3]: 27 nM

Cc1ccc(C2=CC(C)(C)Oc3c(Br)cc(C(=O)Nc4cc(F)c(C(=O)O)c(F)c4)cc32)cc1
Kd [1]: 898 nM | Kd [2]: 10.6 µM | Kd [3]: 1.5 nM

Cc1ccc(C2=CCC(C)(C)c3ccc(C(=O)Nc4cc(F)c(C(=O)O)c(F)c4)cc32)cc1
Kd [1]: 2260 nM | Kd [2]: > 30 µM | Kd [3]: 32 nM

Cc1ccc(C2=CC(C)(C)Oc3c(Br)cc(C(=O)Nc4ccc(C(=O)O)c(F)c4)cc32)cc1
Kd [1]: 320 nM | Kd [2]: 7.26 µM | Kd [3]: 2.8 nM
